From patent publication US11998767B2, “Hand sanitizers with improved aesthetics and skin-conditioning to encourage compliance with hand hygiene guidelines” (GOJO Industries, Inc., priority 2014, dated 2024)

Tests used:
IL-8 = IL-8 ELISA, PMA-induced IL-8 in human dermal keratinocytes; format: cell-based; settings: niacinamide in cell culture medium, co-treated with PMA; amount (wt. %) differs per example; Control A medium 100%, Control B PMA 0.0%
From the text: Interleukin 8 (IL-8) is a chemokine and proinflammatory cytokine produced by macrophages and other cell types such as epithelial cells. It is secreted from keratinocytes in skin in response to inflammatory stimuli. IL-8 is secreted and is an important mediator of the immune reaction in the innate immune system response. IL-8 overexpressed is a biomarker of skin irritation. […] No irritation is expected, and therefore Control A provides a baseline. […] Decreased 11-8 expression reflects the ingredient's anti-irritation activity. In order to carry out the test method, an assay kit was employed that was obtained from R&D Systems: Human CXCL8/IL-8 Duoset ELISA Development Kit. The following steps were followed: 1. Coat EIA high binding 96-well plate with IL-8 capture antibody overnight at room temperature. 2. Prepare all reagents, standard dilutions, and samples. 3. Wash the coated plate with 350 μL/well of washing buffer 4 times, then adding 300 μL/well of blocking solution incubating 1 hour at room temperature. 4. Repeat washing step with 350 μL/well of wash buffer (4 times). 5. Add 100 μL, of Standard, control, or sample to each well. Cover with a plate sealer, and incubate at room temperature for 2 hours. 6. Aspirate each well and wash, repeating the process 3 times for a total of 4 washes. 7. Add 100 μL, of detection IL-8 antibody to each well. Cover with a new plate sealer, and incubate at room temperature for 2 hours. 8. Aspirate and wash 4 times. 9. Add 100 μL, Biotin-Strepavidin conjugate to each well, incubating 20 minutes at room temperature. 10. Aspirate and wash 4 times. 11. Add 100 μL, substrate Solution to each well. Incubate at room temperature for 20 minutes, making sure to protect the wells from the light. 12. Add 50 μL, of Stop Solution to each well. Data collected—using a colorimeter, absorbance was measured at 450 nanometers (nm) within 30 minutes. Wavelength correction was set to 570 nm.

PPARδ = experiment: Skin barrier biomarker gene expression, real-time RT-PCR, keratinocyte monolayer; format: cell-based, human; settings: gene expression level, keratinocytes treated 24 hours; Control C KGM 100%; concentration differs per example
Procedure: (§1) An in vitro model was employed, using monolayer human dermal keratinocytes culture (KGM). Two controls were tested: the medium and inflammatory cytokines interleukin (IL-1b).
(§2) Skin Barrier: • Biomarkers: ABCA12, Involucrin, PPARδ • Using different concentration of ingredients to treat the keratinocyte for 24 hours • Collect the cells and prepare total RNA from the treated cells • Using Real-time RT-PCT to detect different barrier function related biomarker's gene expression level • Comparative Benchmark: Vitamin D3 (cholecalciferol) in three different concentrations
PPARδ is Peroxisome proliferator-activated receptor, also known as NR1C2. It is a nuclear receptor that in humans is encoded by the PPARD gene. […] Generally, the higher expression, the better skin barrier function is.

Involucrin = experiment: as above; format: cell-based, human; settings: gene expression level, keratinocytes treated 24 hours; Control C KGM 100%; concentration differs per example
Procedure: as §1, §2
Involucrin is a protein component of human skin. It's a biomarker for keratinocyte differentiation. In binding the protein loricrin, involucrin contributes to the formation of a cell envelope that protects corneocytes in the skin stratum corneum. The higher expression, the better skin barrier function is.

ABCA12 = experiment: as above; format: cell-based, human; settings: gene expression level, keratinocytes treated 24 hours; Control C KGM 100%; concentration differs per example
Procedure: as §1, §2
ABCA12 is also known as ATP-binding cassette transporter 12. It is a protein that in humans is encoded by the ABCA12 gene. The ABCA12 gene is active in some types of skin cells. The ABCA12 protein appears to be essential for normal development of the skin, which provides a barrier between the body and its surrounding environment. It plays an important role in transporting lipids (free fat acids) in cells that make up the outermost layer of skin (the epidermis). Generally, the higher expression, the better skin barrier function is.

[1] = tested on: human dermal keratinocytes; experiment: MTT assay, cell viability of PMA-treated keratinocytes; format: cell-based; settings: co-treated with PMA, amount (wt. %) differs per example, Control A medium 100%
From the text: The MTT assay is a colorimetric assay for assessing cell viability, cell proliferation, and/or cytotoxicity. NAD(P)H-dependent cellular oxidoreductase enzymes may, under defined conditions, reflect the number of viable cells present. These enzymes are capable of reducing the tetrazolium dye MTT 3-(4,5-dimethylthiazol-2-yl)-2,5-diphenyltetrazolium bromide to insoluble formazan, which has a purple color. MTT assay can also be used to measure cytotoxicity (loss of viable cells) or cytostatic activity (shift from proliferative to resting status) of potential medicinal agents and toxic materials.
Controls A and B described above for the IL-8 Assay were also employed in this test. The mitigating effect of the test samples on the effect of Control B on the keratinocytes was measured. More specifically, while Control B has a negative effect on cell viability, cell proliferation, and/or cytotoxicity, this mitigation of this negative effect was determined by measuring the reduction of MTT.
The following steps were followed: Once the liquid was removed from the wells for the IL-8 Assay described above, 100 μl/well of 0.5 mg/ml of MTT in phenol red-free DMEM (cell culture medium) was added into each of the 96-well plates. After incubating 1 hour at 37° C., all liquid was removed (MTT solution) from the wells of the culture plate. Then 100 μl of DMSO was added to each well to completely dissolve the purple product. Absorption was measured using a plate reader at 550 nm wavelength.

TNF-α = TNF-α ELISA, as IL-8 method, PMA-treated human dermal keratinocytes; format: cell-based; settings: niacinamide in cell culture medium, co-treated with PMA; amount (wt. %) differs per example; Control A medium 100%, Control B PMA 0.0%
From the text: For Control A, human dermal keratinocytes are left untreated. No irritation is expected, and therefore Control A provides a baseline. For Control B, IL-8 is induced in human dermal keratinocytes by applying phorbol 12-myristate 13-acetate (PMA). For all other samples, the human dermal keratinocytes are co-treated with PMA and a composition containing the ingredient of interest. Decreased 11-8 expression reflects the ingredient's anti-irritation activity.
The following steps were followed: 1. Coat EIA high binding 96-well plate with IL-8 capture antibody overnight at room temperature. 2. Prepare all reagents, standard dilutions, and samples. 3. Wash the coated plate with 350 μL/well of washing buffer 4 times, then adding 300 μL/well of blocking solution incubating 1 hour at room temperature. 4. Repeat washing step with 350 μL/well of wash buffer (4 times). 5. Add 100 μL, of Standard, control, or sample to each well. Cover with a plate sealer, and incubate at room temperature for 2 hours. 6. Aspirate each well and wash, repeating the process 3 times for a total of 4 washes. 7. Add 100 μL, of detection IL-8 antibody to each well. Cover with a new plate sealer, and incubate at room temperature for 2 hours. 8. Aspirate and wash 4 times. 9. Add 100 μL, Biotin-Strepavidin conjugate to each well, incubating 20 minutes at room temperature. 10. Aspirate and wash 4 times. 11. Add 100 μL, substrate Solution to each well. Incubate at room temperature for 20 minutes, making sure to protect the wells from the light. 12. Add 50 μL, of Stop Solution to each well. Data collected—using a colorimeter, absorbance was measured at 450 nanometers (nm) within 30 minutes. Wavelength correction was set to 570 nm.
Samples were tested similarly to the method described above, except that TNF-α was used instead of IL-8.

| SMILES | PPARδ (PPARδ) [%] | Involucrin (Involucrin) [%] | ABCA12 (%) (ABCA12) | other results |
| --- | --- | --- | --- | --- |
| NC(=O)c1cccnc1 [Example 21, Niacinamide] |  |  |  | IL-8 Inhibition (%) (IL-8): 33.20% |
| NC(=O)c1cccnc1 [Example 35, Niacinamide] | 136 | 441 | 192 |  |
| CCCCCCCCCCCCCC(=O)O[C@@H]1[C@@H](C)[C@@]2(O)[C@@H](C=C(CO)C[C@]3(O)C(=O)C(C)=C[C@@H]23)[C@@H]2C(C)(C)[C@]12OC(C)=O [Control B, phorbol 12-myristate 13-acetate, reference compound] |  |  |  | Cell Viability (%) ([1]; avenanthramide series): 95%; Cell Viability (%) ([1]; niacinamide series): 95% |
| C=C1CC[C@H](O)C/C1=C/C=C1\CCC[C@]2(C)[C@@H]([C@H](C)CCCC(C)C)CC[C@@H]12 [Comparative 1, Vitamin D3 (cholecalciferol), reference compound] | 752 | 384 | 58 |  |
| NC(=O)c1cccnc1 [Example 29, Niacinamide] |  |  |  | Cell Viability (%) ([1]; niacinamide series): 97% |
| NC(=O)c1cccnc1 [Example 20, Niacinamide] |  |  |  | IL-8 Inhibition (%) (IL-8): 28.85% |
| NC(=O)c1cccnc1 [Example 36, Niacinamide] | 164 | 817 | 806 |  |
| C=C1CC[C@H](O)C/C1=C/C=C1\CCC[C@]2(C)[C@@H]([C@H](C)CCCC(C)C)CC[C@@H]12 [Comparative 2, Vitamin D3 (cholecalciferol), reference compound] | 334 | 208 | 45 |  |
| NC(=O)c1cccnc1 [Example 18, Niacinamide] |  |  |  | IL-8 Inhibition (%) (IL-8): 16.64% |
| NC(=O)c1cccnc1 [Example 28, Niacinamide] |  |  |  | TNF-α Inhibition (%) (TNF-α): 52.7% |
| NC(=O)c1cccnc1 [Example 32, Niacinamide] |  |  |  | Cell Viability (%) ([1]; niacinamide series): 87% |
| NC(=O)c1cccnc1 [Example 38, Niacinamide] | 863 | 1656 | 499 |  |
| NC(=O)c1cccnc1 [Example 24, Niacinamide] |  |  |  | TNF-α Inhibition (%) (TNF-α): 29.6% |
| NC(=O)c1cccnc1 [Example 37, Niacinamide] | 378 | 1589 | 447 |  |
| NC(=O)c1cccnc1 [Example 17, Niacinamide] |  |  |  | IL-8 Inhibition (%) (IL-8): 16.53% |
| C=C1CC[C@H](O)C/C1=C/C=C1\CCC[C@]2(C)[C@@H]([C@H](C)CCCC(C)C)CC[C@@H]12 [Comparative 3, Vitamin D3 (cholecalciferol), reference compound] | 238 | 406 | 42 |  |
| NC(=O)c1cccnc1 [Example 19, Niacinamide] |  |  |  | IL-8 Inhibition (%) (IL-8): 20.86% |
| NC(=O)c1cccnc1 [Example 34, Niacinamide] | 88 | 192 | 120 |  |
| NC(=O)c1cccnc1 [Example 23, Niacinamide] |  |  |  | TNF-α Inhibition (%) (TNF-α): 28.2% |
| NC(=O)c1cccnc1 [Example 30, Niacinamide] |  |  |  | Cell Viability (%) ([1]; niacinamide series): 95% |
| NC(=O)c1cccnc1 [Example 25, Niacinamide] |  |  |  | TNF-α Inhibition (%) (TNF-α): 28.6% |
| NC(=O)c1cccnc1 [Example 26, Niacinamide] |  |  |  | TNF-α Inhibition (%) (TNF-α): 45.6% |
| NC(=O)c1cccnc1 [Example 27, Niacinamide] |  |  |  | TNF-α Inhibition (%) (TNF-α): 45.1% |
| NC(=O)c1cccnc1 [Example 33, Niacinamide] | 82 | 156 | 41 |  |
| NC(=O)c1cccnc1 [Example 31, Niacinamide] |  |  |  | Cell Viability (%) ([1]; niacinamide series): 99% |
| NC(=O)c1cccnc1 [Example 22, Niacinamide] |  |  |  | IL-8 Inhibition (%) (IL-8): 32.04% |
| NC(=O)c1cccnc1 [Example 16, Niacinamide] |  |  |  | IL-8 Inhibition (%) (IL-8): 0.0% |
